Measured values: patent US8093260B2, “Aporphine derivatives and pharmaceutical use thereof” (Standard Chem. & Pharm. Co., Ltd., priority 2008, dated 2012)

Legend:
lipid peroxidase = assay: Activity in inhibiting lipid peroxidase (malondialdehyde quantitation); assay type: biochemical, Dunkin Hartley Guinea pig; settings: 10 μM; guinea pig liver microsomes; 20 minutes/37° C.
Protocol: The assay was executed with reference to the method described in Biochem Biophys Res Commun. 1986; 135(3): 1015-1021.
• (a) Source: Dunkin Hartley Guinea pig liver microsomes • (b) Substrate: Polyunsaturated fatty acid • (c) Vehicle: 1% DMSO • (d) Pre-Incubation Time/Temp: 15 minutes/37° C. • (e) Incubation Time/Temp: 20 minutes/37° C. • (f) Incubation Buffer: 0.25 M Potassium Phosphate, pH 7.4, 0.1 mM EDTA • (g) Quantitation Method: Spectrophotometric quantitation of Malondialdehyde

[1] = Free radical scavenging of AAPH (β-phycoerythrin fluorescence decay); assay type: biochemical; settings: compound 5×10^−6 M, AAPH 25 mM, β-phycoerythrin 5 nM, FIG. 2
Source text: In order to evaluate the effect of test compounds in scavenging hydrophilic peroxy radical, the experiment was executed with reference to the method described by Tsuchiya et al. (Methods Enzymol 1992; 213: 460-472). In the experiment, peroxides will react with fluorescent substances and thus inflect observed fluorescence intensity. Thereby, the effect of test compounds in free radical scavenging can be evaluated by measuring the variation of the fluorescence intensity after the addition of test compounds.
First, to a silicate tube was added a phosphate solution (2 ml, pH 7.4), followed by the addition of β-phycoerythrin (5 nM) to increase relative fluorescence intensity. After 5 minutes, 2,2′-azobis(2-amidinopropane)dihydrochloride (25 mM, AAPH) was added therein. Subsequently, through a fluorescent spectrometry (Shimadzu RF-5301PC, Japan), the fluorescence intensity of β-phycoerythrin was measured by excitation at 540 nm and emission at 570 nm. Then, the test compounds (5×10^−6 M) was further added therein to observe the variation of the fluorescence intensity, in which 0.1% DMSO was taken as a control group.

[2] = tested on: vascular smooth muscle cells of rats; assay: Protecting activity in vascular smooth muscle cells against H2O2 (MTT); assay type: cell-based, rat; settings: compound 10 μM, 30 minutes before H2O2 200 μM, 24 hours, FIG. 3
Protocol: The vascular smooth muscle cells of rats (2×10^4 cells/mL×1 mL) were quantitatively seeded in 24-well plates, and cultured in Dulbecco's modified Eagle medium (DMEM) with 10% fetal bovine serum (FBS) for 24 hours to achieve cell adhesion. After cell adhesion, the DMEM medium with 10% fetal bovine serum was replaced with a fresh DMEM medium with 0.1% fetal bovine serum to perform cell culture for 48 hours.
Next, the test compounds were added in the cultures (final concentration: 0.1, 1, 10 μM). After 30 minutes, H2O2 (200 μM) was added therein to perform reaction for 24 hours in an incubator. Subsequently, in a light-proof environment, MTT (100 μL) was added into each well to perform reaction at 37° C. for 3 hours. The supernatant liquor was removed and then isopropanol (500 μL) was added, followed by shaking for 10 minutes. After standing for 10 minutes, supernatant liquor (200 μL) was transferred into 96-well plates. Finally, the absorbance values (O.D.) were monitored at 540 nm (OD540) and 630 nm (OD630). Based on the measured absorbance values (OD540-OD630), the effect of these test compounds on cell growth can be evaluated, as shown in FIG. 3.

Row | Inhibition (%) (lipid peroxidase) | Compound | protection of β-phycoerythin from peroxy radical AAPH-induced damage (fluorescence decay) [1] | inhibition of H2O2 damage to vascular smooth muscle cells (cell viability, MTT) [2]
1 | 64% | COc1cc2c(cc1OC)-c1c(O)c(OC)cc3c1C(C2)N(CC(O)COc1ccccc1OC)CC3 (stereo not drawn) [Compound 1] | delay β-phycoerythin fluorescence degradation | significantly inhibit H2O2 to damage vascular smooth muscle cells
2 | 70% | COc1cc2c(cc1OC)-c1c(O)c(OC)cc3c1C(C2)N(CC(=O)Nc1c(C)cccc1C)CC3 (stereo not drawn) [Compound 2] | delay β-phycoerythin fluorescence degradation | slightly inhibit H2O2 to damage vascular smooth muscle cells
